Laboratory results reported in BigSolDB 2.1.

O=c1cc[nH]c(=O)[nH]1
solubility (mole fraction)
Details | 283.15 K | 288.15 K | 293.15 K | 298.15 K | 303.15 K | 308.15 K | 313.15 K | 318.15 K
in ethanol | 7.7e-05 | 9.1e-05 | 0.000113 | 0.000135 | 0.000166 | 0.000212 | 0.000248 | 0.000296
in isopropanol | 6.6e-05 | 7.6e-05 | 0.000105 | 0.00014 | 0.000169 | 0.000216 | 0.000245 | 0.000281
in methanol | 0.000152 | 0.000166 | 0.000206 | 0.000253 | 0.000307 | 0.000362 | 0.000414 | 0.000519
in water | 0.000166 | 0.000209 | 0.000264 | 0.000332 | 0.00042 | 0.000513 | 0.000613 | 0.000738
